From the NIST ThermoML archive (doi:10.1016/j.jct.2006.03.004)
Numbers after ± are expanded uncertainties.

Settings: Liquid

SMILES: FCC(F)(F)F [1,1,1,2-tetrafluoroethane]
- vapor or sublimation pressure (282.55 K): 404 ± 2.7 kPa
- vapor or sublimation pressure (293.32 K): 572.6 ± 3.7 kPa
- vapor or sublimation pressure (303.24 K): 773.3 ± 5 kPa
- vapor or sublimation pressure (312.66 K): 1002.2 ± 6.5 kPa
- vapor or sublimation pressure (322.82 K): 1304.9 ± 8.3 kPa
